This note sets out measurements from ChEMBL document CHEMBL1154538, “Studies on a series of potent, orally bioavailable, 5-HT(1) receptor ligands--part II” (Bioorg Med Chem Lett, 2009).

Data set [1] deals with T1, 5-hydroxytryptamine receptor 1A (Homo sapiens, UniProt P08908).
T1 sequence (P08908 whole entry): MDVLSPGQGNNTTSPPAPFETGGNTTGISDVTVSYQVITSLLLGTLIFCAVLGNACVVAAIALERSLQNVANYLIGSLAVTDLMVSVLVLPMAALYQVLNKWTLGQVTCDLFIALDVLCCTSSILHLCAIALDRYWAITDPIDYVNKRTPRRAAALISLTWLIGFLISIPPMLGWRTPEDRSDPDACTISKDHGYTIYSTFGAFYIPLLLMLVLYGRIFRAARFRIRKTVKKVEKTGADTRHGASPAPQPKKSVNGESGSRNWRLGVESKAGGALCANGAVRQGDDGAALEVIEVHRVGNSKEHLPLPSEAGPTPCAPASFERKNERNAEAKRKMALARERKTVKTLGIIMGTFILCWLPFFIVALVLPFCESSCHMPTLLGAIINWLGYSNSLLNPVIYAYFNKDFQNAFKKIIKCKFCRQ
Put plainly: Displacement of [125I]WAY100635 from human 5HT1A receptor expressed in CHO cells. The data set is classed as cell-based.

For data set [2], the target named is T2, 5-hydroxytryptamine receptor 1B (Homo sapiens, UniProt P28222). Description: Displacement of [3H]5HT from human 5HT1B receptor expressed in CHO cells. The class given is cell-based.
T2 sequence (P28222 whole entry): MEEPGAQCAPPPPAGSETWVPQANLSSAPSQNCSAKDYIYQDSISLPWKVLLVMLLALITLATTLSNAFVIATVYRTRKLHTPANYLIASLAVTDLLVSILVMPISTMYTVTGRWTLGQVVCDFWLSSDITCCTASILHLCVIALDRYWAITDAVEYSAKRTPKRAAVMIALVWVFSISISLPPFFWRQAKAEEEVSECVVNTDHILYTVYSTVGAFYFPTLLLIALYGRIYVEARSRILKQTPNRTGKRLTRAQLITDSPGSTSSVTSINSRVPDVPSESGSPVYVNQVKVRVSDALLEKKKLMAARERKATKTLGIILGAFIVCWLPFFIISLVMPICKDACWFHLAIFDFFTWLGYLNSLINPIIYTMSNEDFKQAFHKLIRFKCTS
The target of data set [3] is T3, 5-hydroxytryptamine receptor 1D (Homo sapiens, UniProt P28221). Description: Displacement of 3H]5HT from human 5HT1D receptor expressed in CHO cells. The class given is cell-based. A general note: In a radioligand displacement assay an active substance lowers the binding of a labelled ligand.
T3 sequence (P28221 whole entry): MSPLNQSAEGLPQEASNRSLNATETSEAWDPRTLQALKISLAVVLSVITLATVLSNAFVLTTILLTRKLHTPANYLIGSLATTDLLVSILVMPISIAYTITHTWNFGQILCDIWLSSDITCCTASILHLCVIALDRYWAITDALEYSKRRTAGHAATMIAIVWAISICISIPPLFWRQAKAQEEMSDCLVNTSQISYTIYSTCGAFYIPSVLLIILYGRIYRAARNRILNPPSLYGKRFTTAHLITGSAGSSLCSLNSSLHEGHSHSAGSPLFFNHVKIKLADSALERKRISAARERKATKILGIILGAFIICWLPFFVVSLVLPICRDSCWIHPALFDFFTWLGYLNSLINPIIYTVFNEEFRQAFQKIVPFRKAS
Data set [4] concerns the target T2, 5-hydroxytryptamine receptor 1B. Put plainly: Intrinsic activity at human 5HT1B receptor expressed in CHO cells by [35S]GTPgammaS binding assay. The class given is functional, cell-based. For orientation: GTPγS resists hydrolysis and so accumulates on activated G proteins.
A short description of data set [5]: Metabolic stability in rat microsomes assessed as intrinsic clearance. The data set is classed as ADME, Microsome.
The target of data set [6] is T3, 5-hydroxytryptamine receptor 1D. Put plainly: Intrinsic activity at human 5HT1D receptor expressed in CHO cells by [35S]GTPgammaS binding assay. The data set is classed as functional, cell-based.
The target of data set [7] is T4, 5-hydroxytryptamine receptor 1A (Homo sapiens) (UniProt P08908).
T4 sequence (whole entry): T1 sequence (P08908 whole entry)
Description: Intrinsic activity at human 5HT1A receptor expressed in CHO cells by [35S]GTPgammaS binding assay. The class given is functional, cell-based.

The nature of data set [8]: Cmax in rat brain at 3 mg/kg, po. The data set is classed as ADME, organism-based. Also noted: dose 3 mg/kg, route oral.
The nature of data set [9]: Volume of distribution at steady state rat. The data set is classed as ADME, organism-based. Conditions: in vivo, read-out: Vdss.
Data set [10] is described as follows: Metabolic stability in human microsomes assessed as intrinsic clearance. The class given is ADME, Microsome.
A short description of data set [11]: Clearance in rat blood at 1 mg/kg, iv. The class given is ADME, organism-based. Also on record: dose 1 mg/kg, route intravenous.
The nature of data set [12]: Half life in rat at 1 mg/kg, iv. The class given is ADME, organism-based. The following applies: in vivo. Also noted: dose 1 mg/kg, route intravenous.
A short description of data set [13]: Ratio of drug level in brain to blood in rat at 3 mg/kg, po. The class given is ADME, organism-based. Also noted: dose 3 mg/kg, route oral. Conditions: read-out: BBR.
The target in data set [14] is T4, 5-hydroxytryptamine receptor 1A (Homo sapiens). Put plainly: Inverse agonist activity at human 5HT1A receptor expressed in CHO cells. The class given is functional, cell-based.

Active and inactive are the calls of the source. The calls are words filed in the database; no cut-off is given here.

As to `Cc1ccc2c(OCCN3CCC(Cc4cccc(C5CCNCC5)c4)CC3)cccc2n1`, the inhibitory constant (Ki) – broadly, a measure of affinity in units of concentration, obtained from inhibition or displacement – was 6.31 nM in data set [1], 6.31 nM in [2] and 1.26 nM in [3].
Consider `Cc1ccc2c(OCCN3CCC(Cc4cccc(N5CCCCC5)c4)CC3)cccc2n1`, for which the figures for the inhibitory constant (Ki) in [1], in data set [2] and in data set [3] were 3.98 nM, 2 nM and 1 nM, respectively. In addition, the Intrinsic activity in [4] turned out to be 0.6; in data set [6], 0.7; in data set [7], 0. Moreover, in [5], the intrinsic metabolic clearance (CLint scaled) (in general, a measure of how fast metabolising enzymes remove a compound, apart from limits set by blood flow) is 6.2 mL/min/kg.
Regarding `Cc1ccc2c(OCCN3CCC(Cc4cccc(N5CCN(C)CC5)c4)CC3)cccc2n1`, the Ki is 1 nM in data set [1], 6.31 nM in data set [2] and 0.501 nM in data set [3]. The Cmax (usually the maximum level reached in the sampled fluid or tissue) in data set [8] turned out to be 85 ng/g. Besides, the Vd in data set [9] turned out to be 4.4 L/kg. Moreover, the Intrinsic activity in data set [4] amounted to 0.3; in [6], 0.4; in [7], 0. Besides, the intrinsic clearance (CLint scaled) in data set [10] came out at 1.6 mL/min/kg; in [5], 2.9 mL/min/kg. Further, in data set [11], the clearance – broadly, a measure of how efficiently the substance is removed, as volume per time – was 46 mL/min/kg. Besides, in [12], the half-life (commonly how long it takes for the measured level to halve) was 1.3 h. The Kp in data set [13] is 18.
Turning to `Cc1ccc2c(OCCN3CCC(Cc4cccc(N5CCCC5)c4)CC3)cccc2n1`, the Ki in data set [1] is 10 nM; in [2], 39.8 nM; in data set [3], 2.51 nM.
As to `Cc1ccc2c(OCCN3CCC(Cc4cccc(C5CCN(S(C)(=O)=O)CC5)c4)CC3)cccc2n1`, the figures for the Ki in data set [1], in data set [2] and in data set [3] were 7.94 nM, 79.4 nM and 3.16 nM, respectively.
Regarding `Cc1ccc2c(OCCN3CCC(Cc4cccc(N5C[C@@H](C)O[C@@H](C)C5)c4)CC3)cccc2n1`, the Ki in data set [1] is 2.51 nM; in data set [2], 158 nM; in [3], 1.58 nM.
In the case of `Cc1ccc2c(OCCN3CCC(Cc4cccc(N5C[C@@H](C)NC[C@@H]5C)c4)CC3)cccc2n1`, the Ki is 5.01 nM in [1], 31.6 nM in data set [2] and 1 nM in data set [3].
For `Cc1ccc2c(OCCN3CCC(Cc4cccc(N5CCOCC5)c4)CC3)cccc2n1`, the Ki in data set [1] is 5.01 nM; in [2], 126 nM; in data set [3], 2.51 nM. The Intrinsic activity in data set [4] worked out at 0.4; in data set [6], 0.6; in data set [7], 0.
In the case of `Cc1ccc2c(OCCN3CCC(Cc4cccc(-c5ccncc5)c4)CC3)cccc2n1`, the results for the Ki in data set [1], in data set [2] and in data set [3] were 7.94 nM, 7.94 nM and 1 nM, respectively.
For `CC(=O)N1CCC(c2cccc(CC3CCN(CCOc4cccc5nc(C)ccc45)CC3)c2)CC1`, the Ki in data set [1] was 12.6 nM; in data set [2], 158 nM; in [3], 3.98 nM.
On to `Cc1ccc2c(OCCN3CCC(Cc4cccc(NC(=O)CN(C)C)c4)CC3)cccc2n1`, for which, in [14], the result was Active. Besides, the results for the Intrinsic activity in [4] and in data set [6] were 0.2 and 0.4, respectively.
With `Cc1ccc2c(OCCN3CCC(Cc4cccc(N5CCCN(C)CC5)c4)CC3)cccc2n1`, the inhibitory constant (Ki) in [1] was 2.51 nM; in data set [2], 7.94 nM; in [3], 0.631 nM. Further, the Intrinsic activity in [4] stood at 0.3; in data set [6] it was 0.5; in data set [7], 0. Further, the CLint scaled in data set [5] stood at 26 mL/min/kg.
As for `Cc1ccc2c(OCCN3CCC(Cc4cccc(N5CCN[C@H](C)C5)c4)CC3)cccc2n1`, the Ki is 2.51 nM in data set [1], 2 nM in data set [2] and 0.631 nM in [3]. Moreover, the Intrinsic activity in [4] was determined as 0.3; in [6], 0.5; in data set [7], 0.
For the compound `Cc1ccc2c(OCCN3CCC(Cc4cccc(C5CCN(C)CC5)c4)CC3)cccc2n1`, the Ki was 3.16 nM in data set [1], 5.01 nM in data set [2] and 0.2 nM in data set [3]. Further, the concentration in data set [8] peaked (Cmax) at 34 ng/g. For the same compound, the result in data set [14] was Active. Moreover, the Vd in data set [9] was 12.4 L/kg. For the same compound, the Intrinsic activity in [4] is 0.3; in data set [6], 0.4. In addition, the CLint scaled in data set [10] was less than 0.5 mL/min/kg; in [5], 2 mL/min/kg. Further, the clearance in [11] was 14 mL/min/kg. In data set [12], this compound gave a half-life of 12 h. Besides, the Kp in [13] turned out to be 1.3.
On to `Cc1ccc2c(OCCN3CCC(Cc4cccc(-c5cccnc5)c4)CC3)cccc2n1`, for which the Ki in data set [1] is 5.01 nM; in [2], 12.6 nM; in data set [3] it was 2 nM.
Consider `Cc1ccc2c(OCCN3CCC(Cc4cccc(N5C[C@@H](C)N[C@@H](C)C5)c4)CC3)cccc2n1`, for which the Ki is 2 nM in data set [1], 3.98 nM in [2] and 0.794 nM in data set [3]. Moreover, the Intrinsic activity in data set [4] was 0.3; in [6] it was 0.5; in data set [7] it was 0.
Consider `Cc1ccc2c(OCCN3CCC(Cc4cccc(NS(C)(=O)=O)c4)CC3)cccc2n1`, for which the Intrinsic activity was 0.3 in [4], 0 in [6] and 0 in data set [7].
For `Cc1ccc2c(OCCN3CCC(Cc4cccc(N5CCN(C)C(=O)C5)c4)CC3)cccc2n1`, the inhibition constant Ki in data set [1] was 7.94 nM; in data set [2], 126 nM; in data set [3] it was 10 nM.
`Cc1ccc2c(OCCN3CCC(Cc4cccc(N5CCN(C)CC5=O)c4)CC3)cccc2n1`: the Ki is 20 nM in [1], 63.1 nM in [2] and 3.98 nM in data set [3].
Taken in the same sequence, the figures for `Cc1ccc2c(OCCN3CCC(Cc4cccc(-c5ccccc5)c4)CC3)cccc2n1` were 63.1 nM, 63.1 nM and 7.94 nM.
With `Cc1ccc2c(OCCN3CCC(Cc4cccc(N5CCN[C@@H](C)C5)c4)CC3)cccc2n1`, the inhibitory constant (Ki) in data set [1] is 3.98 nM; in data set [2] it was 15.8 nM; in [3], 1 nM. Besides, the Intrinsic activity in data set [4] turned out to be 0.3; in data set [6] it was 0.5; in [7], 0.
In the case of `Cc1ccc2c(OCCN3CCC(Cc4cccc(-c5ccoc5)c4)CC3)cccc2n1`, the results for the Ki in [1], in [2] and in data set [3] were 31.6 nM, 39.8 nM and 6.31 nM, respectively.
